Several values for one entry are separate records, joined by “and”; a condition that tells them apart may be missing. Identical values can stand only once. Inconclusive results and toxic doses are left out. Rule as the data show it: active = T/C of 150% or more; inactive = T/C below 125%.
Test system: L1210 leukemia ip in BDF1 mice, survival T/C
Assay: NCI In Vivo Anticancer Drug Screen. Data for tumor model L1210 Leukemia (intraperitoneal) in B6D2F1 (BDF1) mice
Details: endpoint: mean survival time, higher = longer survival
Procedure, shortened: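 Tumor cells were implanted, animals were treated, and survival was followed. The result divides the treated measurement by the vehicle-control measurement.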

[1] = dose: 100.0 mg/kg/injection, schedule: Q01DX009 (ip), vehicle: saline
[2] = dose: 100.0 mg/kg/injection, schedule: Q04DX003 (ip), vehicle: saline
[3] = dose: 200.0 mg/kg/injection, schedule: Q01DX009 (ip), vehicle: saline
[4] = dose: 200.0 mg/kg/injection, schedule: Q04DX003 (ip), vehicle: saline
[5] = dose: 400.0 mg/kg/injection, schedule: Q01DX009 (ip), vehicle: saline
[6] = dose: 400.0 mg/kg/injection, schedule: Q04DX003 (ip), vehicle: saline
[7] = dose: 100.0 mg/kg/injection, schedule: Q04DX003 (ip), vehicle: saline with Tween-80
[8] = dose: 200.0 mg/kg/injection, schedule: Q04DX003 (ip), vehicle: saline with Tween-80
[9] = dose: 400.0 mg/kg/injection, schedule: Q04DX003 (ip), vehicle: saline with Tween-80
[10] = dose: 100.0 mg/kg/injection, schedule: Q04DX003 (ip), vehicle: Klucel (hydroxypropylcellulose) (HPC)
[11] = dose: 200.0 mg/kg/injection, schedule: Q04DX003 (ip), vehicle: Klucel (hydroxypropylcellulose) (HPC)
[12] = dose: 400.0 mg/kg/injection, schedule: Q04DX003 (ip), vehicle: Klucel (hydroxypropylcellulose) (HPC)
[13] = dose: 100.0 mg/kg/injection, schedule: Q04DX002 (ip), vehicle: Klucel (hydroxypropylcellulose) (HPC)
[14] = dose: 200.0 mg/kg/injection, schedule: Q04DX002 (ip), vehicle: Klucel (hydroxypropylcellulose) (HPC)
[15] = dose: 400.0 mg/kg/injection, schedule: Q04DX002 (ip), vehicle: Klucel (hydroxypropylcellulose) (HPC)
[16] = dose: 100.0 mg/kg/injection, schedule: Q01DX009 (ip), vehicle: saline with Tween-80
[17] = dose: 200.0 mg/kg/injection, schedule: Q01DX009 (ip), vehicle: saline with Tween-80
[18] = dose: 100.0 mg/kg/injection, schedule: Q04DX002 (ip), vehicle: saline with Tween-80
[19] = dose: 200.0 mg/kg/injection, schedule: Q04DX002 (ip), vehicle: saline with Tween-80
[20] = dose: 400.0 mg/kg/injection, schedule: Q04DX002 (ip), vehicle: saline with Tween-80
[21] = dose: 100.0 mg/kg/injection, schedule: Q01DX001 (ip), vehicle: saline
[22] = dose: 200.0 mg/kg/injection, schedule: Q01DX001 (ip), vehicle: saline
[23] = dose: 400.0 mg/kg/injection, schedule: Q01DX001 (ip), vehicle: saline

Measured: T/C

C[C@]12CC[C@@H]3c4ccc(O)cc4CC[C@H]3[C@@H]1CCC(=O)O2
inactive: [1] 97 % of control | [2] 97 % of control | [3] 95 % of control | [4] 90 % of control | [5] 95 % of control | [6] 100 % of control

O=c1oc2ccc(Cl)cc2c(OCCO)c1Cl
inactive: [7] 94 % of control | [8] 96 % of control | [9] 86 % of control

OCCc1cc2ccccc2s1
inactive: [10] 107 % of control | [11] 103 % of control | [12] 113 % of control

COc1ccc(CNCCO)cc1
inactive: [1] 96 % of control | [2] 96 % of control | [3] 91 % of control | [4] 98 % of control | [5] 97 % of control | [6] 93 % of control

CC(=O)C1CCC2C3CC=C4CC(O)CCC4(C)C3CCC12C (configuration not stated)
inactive: [13] 91 % of control | [10] 89 % of control | [14] 100 % of control | [11] 92 % of control | [15] 91 % of control

CC(CP(=O)(c1ccccc1)c1ccccc1)C(=O)O (configuration not stated)
inactive: [16] 98 % of control | [17] 97 % of control | dose: 400.0 mg/kg/injection, schedule: Q01DX009 (ip), vehicle: saline with Tween-80 98 % of control

Cc1ccc(C(C)(Cl)/N=N\C(C)(Cl)c2ccc([N+](=O)[O-])cc2)cc1 (configuration not stated)
inactive: [7] 90 % of control | [8] 96 % of control | [9] 98 % of control

CONC(N)=O
inactive: dose: 100.0 mg/kg/injection, schedule: Q01DX Z (ip), vehicle: carboxymethylcellulose (CMC) 100 % of control | dose: 200.0 mg/kg/injection, schedule: Q01DX Z (ip), vehicle: carboxymethylcellulose (CMC) 98 % of control | dose: 350.0 mg/kg/injection, schedule: Q01DX Z (ip), vehicle: carboxymethylcellulose (CMC) 100 % of control and 101 % of control | dose: 500.0 mg/kg/injection, schedule: Q01DX Z (ip), vehicle: carboxymethylcellulose (CMC) 98 % of control | dose: 750.0 mg/kg/injection, schedule: Q01DX Z (ip), vehicle: carboxymethylcellulose (CMC) 98 % of control

COc1ccc(P(=S)(S)c2ccc(OC)cc2)cc1
inactive: dose: 100.0 mg/kg/injection, schedule: Q04DX003 (ip), vehicle: acetone 94 % of control | dose: 200.0 mg/kg/injection, schedule: Q04DX003 (ip), vehicle: acetone 100 % of control | dose: 400.0 mg/kg/injection, schedule: Q04DX003 (ip), vehicle: acetone 90 % of control

NP(N)(=O)c1ccccc1
inactive: [7] 107 % of control | [8] 118 % of control | [9] 105 % of control

O=C/C=C/c1cc([N+](=O)[O-])ccc1Cl
inactive: [13] 100 % of control | [14] 96 % of control | [15] 100 % of control

CN(C)CC/C=C1\c2ccccc2CSc2ccccc21
inactive: dose: 6.25 mg/kg/injection, schedule: Q01DX009 (ip), vehicle: saline 95 % of control | dose: 12.5 mg/kg/injection, schedule: Q01DX009 (ip), vehicle: saline 108 % of control | dose: 25.0 mg/kg/injection, schedule: Q01DX009 (ip), vehicle: saline 109 % of control | dose: 25.0 mg/kg/injection, schedule: Q04DX003 (ip), vehicle: saline 100 % of control | dose: 50.0 mg/kg/injection, schedule: Q01DX009 (ip), vehicle: saline 101 % of control | dose: 50.0 mg/kg/injection, schedule: Q04DX003 (ip), vehicle: saline 89 % of control | [2] 97 % of control

O=C(O)c1c(F)cccc1Cl
inactive: [18] 93 % of control | [19] 108 % of control | [20] 106 % of control

COc1ccc(OC)c(C(=O)CC2OCCO2)c1
inactive: [21] 95 % of control | [22] 95 % of control | [23] 105 % of control

Cc1cc(OCC(=O)O)c(Cl)cc1Cl
inactive: dose: 50.0 mg/kg/injection, schedule: Q01DX009 (ip), vehicle: saline with Tween-80 92 % of control | [16] 99 % of control

CC(=O)OC1c2ccccc2C2c3ccccc3C1C2Cl (configuration not stated)
inactive: dose: 176.0 mg/kg/injection, schedule: Q01DX001 (ip), vehicle: carboxymethylcellulose (CMC) 91 % of control | dose: 264.0 mg/kg/injection, schedule: Q01DX001 (ip), vehicle: carboxymethylcellulose (CMC) 95 % of control | dose: 400.0 mg/kg/injection, schedule: Q01DX001 (ip), vehicle: carboxymethylcellulose (CMC) 92 % of control | dose: 600.0 mg/kg/injection, schedule: Q01DX001 (ip), vehicle: carboxymethylcellulose (CMC) 89 % of control

O=S(=O)(Cc1ccc(Br)cc1)Cc1ccc(Br)cc1
inactive: dose: 50.0 mg/kg/injection, schedule: Q01DX001 (ip), vehicle: saline 102 % of control | [21] 90 % of control | [22] 88 % of control | [23] 90 % of control

O=C(O)CC(NC(=O)OCc1ccccc1)c1ccccc1 (configuration not stated)
inactive: dose: 100.0 mg/kg/injection, schedule: Q01DX001 (ip), vehicle: saline with Tween-80 92 % of control | [16] 93 % of control and 102 % of control | [18] 110 % of control | [7] 97 % of control | dose: 200.0 mg/kg/injection, schedule: Q01DX001 (ip), vehicle: saline with Tween-80 90 % of control | [17] 98 % of control and 91 % of control | [19] 95 % of control | [8] 92 % of control | dose: 400.0 mg/kg/injection, schedule: Q01DX001 (ip), vehicle: saline with Tween-80 92 % of control | [20] 100 % of control | [9] 93 % of control

Nc1cccc(CC(=O)c2ccccc2)n1
inactive: dose: 5.0 mg/kg/injection, schedule: Q01DX001 (ip), vehicle: saline 97 % of control | dose: 10.0 mg/kg/injection, schedule: Q01DX001 (ip), vehicle: saline 106 % of control | dose: 20.0 mg/kg/injection, schedule: Q01DX001 (ip), vehicle: saline 100 % of control | dose: 40.0 mg/kg/injection, schedule: Q01DX001 (ip), vehicle: saline 97 % of control | dose: 80.0 mg/kg/injection, schedule: Q01DX001 (ip), vehicle: saline 100 % of control | [22] 106 % of control

CCOC(=O)C(=O)C1C(=O)C(=O)C(c2ccccc2)C1=O (configuration not stated)
inactive: dose: 75.0 mg/kg/injection, schedule: Q01DX001 (ip), vehicle: carboxymethylcellulose (CMC) 104 % of control | dose: 150.0 mg/kg/injection, schedule: Q01DX001 (ip), vehicle: carboxymethylcellulose (CMC) 100 % of control | dose: 300.0 mg/kg/injection, schedule: Q01DX001 (ip), vehicle: carboxymethylcellulose (CMC) 105 % of control

COc1ccc(C(=O)C=C(C(F)(F)F)C(F)(F)F)cc1
inactive: dose: 25.0 mg/kg/injection, schedule: Q04DX003 (ip), vehicle: saline with Tween-80 93 % of control | dose: 50.0 mg/kg/injection, schedule: Q04DX003 (ip), vehicle: saline with Tween-80 102 % of control | [7] 100 % of control and 102 % of control

COc1ccc(OC)c(NC(=O)Nc2ccc(Nc3ccccc3)cc2)c1
inactive: [11] 93 % of control | [12] 100 % of control

OC(Cn1cnc2ccccc21)c1ccccc1 (configuration not stated)
inactive: [10] 96 % of control | [11] 97 % of control | [12] 94 % of control

O=C(C=C(C(F)(F)F)C(F)(F)F)c1ccc(Br)cc1
inactive: dose: 25.0 mg/kg/injection, schedule: Q04DX003 (ip), vehicle: other 88 % of control | dose: 50.0 mg/kg/injection, schedule: Q04DX003 (ip), vehicle: other 94 % of control

Cn1cc(C(C)(C(=O)O)c2cn(C)c3ccccc23)c2ccccc21
inactive: [21] 104 % of control | [22] 102 % of control | [23] 102 % of control

O=C(/C=C/c1ccccc1)CC(O)(C(F)(F)F)C(F)(F)F
inactive: dose: 100.0 mg/kg/injection, schedule: Q04DX003 (sc), vehicle: olive oil, sesame oil, peanut oil 113 % of control | dose: 200.0 mg/kg/injection, schedule: Q04DX003 (sc), vehicle: olive oil, sesame oil, peanut oil 113 % of control | dose: 400.0 mg/kg/injection, schedule: Q04DX003 (sc), vehicle: olive oil, sesame oil, peanut oil 108 % of control

Source: PubChem BioAssay AID248 (DTP/NCI, 2004)
